Results as given in patent publication US10512271B2, “Method for preventing or treating microbial growth on a manufactured product” (Stellenbosch University, priority 2014, dated 2019).
Square brackets hold non-standard residues; d marks the D form. Peptide text beside a SMILES is read from it. ξ: configuration not given here. Orn = NCCC[C@H](N)C(=O)O; ξP = O=C(O)C1CCCN1

Assays:
M. luteus = test: Cell viability (vitality) assay, low nutrient environment, high cell count; format: cell-based, Micrococcus luteus
Description: Treated and untreated matrixes (filters, membrane and films) were punched into 5 mm disks and triplicate disks were transferred to black […] microplates. A mid-log phase M. luteus culture was diluted with LB media to A620 of 0.20 (1.3×10^7 CFU/mL). Each well received […] of the diluted culture ([…]) on top of the 5 mm disk. The plate was incubated at 37° C. for one hour after which 90 μL phosphate-buffered saline (PBS) and 10 μL CellTiter-Blue® Reagent was added to each well. The plate was again incubated for 2 hours at 37° C. After the […] incubation in the low nutrient environment, the fluorescence was determined at an excitation wavelength of 530 nm and emission wavelength of 590 nm. The fluorescence reading was taken with a Varioskan™ Multimode reader from Thermo Scientific™ controlled by Skanit Software 2.4.1 from Thermo Electron. Each plate was shaken for 5 seconds before measurements were taken at 25° C.
Cell viability was calculated using the equation: […]
Different filters, surfaces and nanofibers, treated with Trc extract or GS, were assessed for the more direct short-term killing of M. luteus (sterilisation) using a low nutrient environment, high cell count and the Alamar Blue vitality assay to assess bacterial metabolism. […] This could be due to the limited spreading of the 5 μL culture on the filter, limiting the contact of the bacteria with the rest of the Trc-coated filter, and thus this assay could have underestimated the overall filter activity.

[1] = Peptide adsorbed to filters, change in absorbance (A230) of incubation solution
Gram-negative organisms = test: Activity of treated CL filters against Gram-negative organisms; format: cell-based
red blood cells = test: Haemolytic assay on treated filter disks; format: cell-based; conditions: peptide in solution
Description: Fresh blood from anonymous donors (obtained from the Western Cape Blood transfusion Service, South Africa) was transferred to a sterile Falcon® tube, filled with sterile phosphate buffered saline (PBS: 4.0% (w/v) NaCl, 0.1% (w/v) KC, 0.72% (w/v) Na2HPO4, 0.1% (w/v) KH2PO4, pH 7.2, 5× concentrated stock solution) and centrifuged at 1200×g for 3 minutes. The supernatant was removed and the process repeated. The supernatant was removed once again and remaining blood cells were used for the assays. A clear 96-well microplate was used for this assay. Three disks of each of the matrixes (treated and untreated) were placed into the wells and 4 wells received 10 μL of gramicidin S as positive haemolytic control (1.0 mg/mL). Blood (100 μL at 2% hematocrit) was pipetted into each of the wells, after which the plates were sealed and incubated at 37° C. for 2 hours. […] The absorbance was measured at 595 nm. Percentage haemolysis was calculated by adapting an equation used for dose response assays (Rautenbach, Gerstner, Vlok, Kulenkamff and Westerhoff, 2005, Anal. Biochem. 350:81-90):
A standard curve of tyrocidine doubling dilution (dose response), starting at 20 μg/mL, was used to determine the amount of Tres leading to lysis. Lysis was determined from the linear part of the dose-response curve using the equation: (% haemolysis−2.38)/5.74=[Trc] μg/mL.

[2] = Wettability of treated filters (water drop size and time to absorption); format: physicochemical
Description: The wettability of untreated and GS- and Trc-treated filters were determined to ascertain the effect the peptides have on the hydrophobicity of the filters. Water containing blue food colouring (50 μL) was pipetted onto untreated and treated filters and the filters were monitored for the drop size and time to complete absorption.
The wettability, an indicator of hydrophilic/hydrophobic character, could possibly be altered by the adsorption of peptide, and this change in character would be an indication of the orientation in which in the peptide adsorbed to the various filters. The wettability of untreated and treated filters was determined (Table 3) and the untreated filters were rated in terms of hydrophobicity based on the time it took for a water droplet to completely absorb into the filter. […] Trc treatment made CA much more hydrophilic, while GS also lead to an increase in hydrophilicity, indicating the exposure of the polar amino acids to the surface. Trc made the HAWP filters more hydrophobic, whereas the gramicidin S made the filter more hydrophilic.

[3] = system: Micrococcus luteus NCTC 8340; test: Antibacterial CFU growth assay, high nutrient environment; format: cell-based
Description: Micrococcus luteus NCTC 8340 was cultured from a freezer stock on Luria Bertani plates (LB: 1% (w/v) NaCl (Merck), 1% (w/v) tryptone (Merck), 0.5% (w/v) yeast extract (Merck), 1.5% (w/v) agar (BioLab) in analytical grade water) and incubated at 37° C. for a period of 48 hours. A colony inoculate in 20 mL of sterile LB broth was incubated at 37° C. until an A620=0.6 was reached. Peptide-treated matrix and a control untreated matrix were transferred to a LB agar plate (high nutrient environment). The M. luteus culture was diluted to A620 of 0.2, further diluted (2000-10000 fold) and transferred to both treated and untreated filters on the LB plate. Plates were incubated for 48 hours at 37° C., after which the matrixes were inspected for the number of colony forming units (CFU).

[4] = Polycarbonate (PC, 0.45 μm pores)
[5] = Polyvinylidene difluoride (GVLP, 0.22 μm pores)
[6] = Polyvinylidene difluoride (HVLP, 0.45 μm pores)

With `CC(C)C[C@@H]1NC(=O)[C@H](CCCN)NC(=O)[C@H](C(C)C)NC(=O)C2CCCN2C(=O)[C@@H](Cc2ccccc2)NC(=O)[C@H](CC(C)C)NC(=O)[C@H](CCCN)NC(=O)[C@H](C(C)C)NC(=O)C2CCCN2C(=O)[C@@H](Cc2ccccc2)NC1=O` (some centres unmarked) [GS, Cyclo-(VOLfPVOLfP)] (cyclo(L[dF][ξP]V[Orn]L[dF][ξP]V[Orn])) as the compound, how does the “short-term killing of M. luteus (sterilisation)” value (shortened to “short-term killing of M. luteus”) (M. luteus; HDC and CL filters, FIG. 3A) read?
The value was “Good protection”.

What about the “short-term killing of M. luteus” value (M. luteus; HVLP filter, FIG. 3A) of the same compound?
The value was “good protection”.

What about the “short-term killing of M. luteus” value (M. luteus; all the other filters except PC, compared with growth assay) of the same compound?
Its value is “improved activity”.

What about the “peptide adsorbed, Absorbance (A230)” value ([1]; GVHP (0.22 μm) filter) of the same compound?
Its value is 5.3±1.1 μg/cm^2.

What about the “peptide adsorbed, Absorbance (A230)” value ([1]; HVLP (0.45 μm) filter) of the same compound?
Its value is 2.8±0.6 μg/cm^2.

And the “peptide adsorbed, Absorbance (A230)” value ([1]; Polycarbonate filter)?
Its value is 1.2±2.2 μg/cm^2.

And the “overt activity against Gram-negative organisms” value (Gram-negative organisms)?
Its value is “not demonstrated”.

And the “concentration at which lysis of red blood cells starts” value (red blood cells)?
Its value is over 10000 ng/mL.

And the “Drop Diameter” value ([2]; Cellulose (CL, No 1))?
The value was over 1 cm.

What about the Time until absorbed ([2]; Cellulose (CL, No 1)) of the same compound?
Its Time until absorbed is under 0.167 min.

And the “induced change in hydrophobicity” value ([2]; Cellulose (CL, No 1))?
The value was “no change”.

What about the “Drop Diameter” value ([2]; Cellulose Acetate (CA)) of the same compound?
Its value is 0.85 cm.

And the Time until absorbed ([2]; Cellulose Acetate (CA))?
The Time until absorbed was 5.01 min.

And the “induced change in hydrophobicity” value ([2]; Cellulose Acetate (CA))?
The value was “decrease”.

What about the “Drop Diameter” value ([2]; GSWP, 0.22 μm pores) of the same compound?
The value was 0.81 cm.

What about the Time until absorbed ([2]; GSWP, 0.22 μm pores) of the same compound?
The Time until absorbed was 3.55 min.

What about the “induced change in hydrophobicity” value ([2]; GSWP, 0.22 μm pores) of the same compound?
The value was “increase”.

And the “Drop Diameter” value ([2]; HAWP, 0.45 μm pores)?
The value was 0.96 cm.

What about the “induced change in hydrophobicity” value ([2]; HAWP, 0.45 μm pores) of the same compound?
The value was “slight”.

And the Time until absorbed ([2]; HAWP, 0.45 μm pores, 50 μL water drop)?
Its Time until absorbed is 2.20 min.

And the “Drop Diameter” value ([2]; High density cellulose (HDC))?
The value was 0.94 cm.

What about the Time until absorbed ([2]; High density cellulose (HDC)) of the same compound?
Its Time until absorbed is over 30 min.

And the “induced change in hydrophobicity” value ([2]; High density cellulose (HDC))?
Its value is “slight”.

What about the “Drop Diameter” value [2, 4] of the same compound?
Its value is 0.73 cm.

And the Time until absorbed [2, 4]?
The Time until absorbed was over 30 min.

And the “induced change in hydrophobicity” value [2, 4]?
The value was “no change”.

And the “Drop Diameter” value [2, 5]?
The value was 1.00 cm.

And the Time until absorbed [2, 5]?
Its Time until absorbed is 17.25 min.

And the “induced change in hydrophobicity” value [2, 5]?
Its value is “increase”.

What about the “Drop Diameter” value [2, 6] of the same compound?
The value was 0.72 cm.

And the Time until absorbed [2, 6]?
The Time until absorbed was 9.20 min.

And the “induced change in hydrophobicity” value [2, 6]?
Its value is “increase”.

And the “protection of treated filters against overt colonisation by M. luteus” value ([3]; 48 hour growth assay, low cell count, high nutrient environment, summary of Table 4)?
Its value is “only protected CL, HDC and HVLP against overt colonisation”.

And the “M. luteus, detected CFU/cm^2 after 48 h in nutrient rich environment” value (“M. luteus, detected CFU/cm^2 after 48 h” for short) ([3]; Cellulose (CL))?
Its value is 0 CFU/cm^2.

And the “M. luteus, detected CFU/cm^2 after 48 h” value ([3]; Cellulose Acetate (CA))?
Its value is 3 ± 1 CFU/cm^2.

And the “M. luteus, detected CFU/cm^2 after 48 h” value ([3]; High density cellulose (HDC))?
Its value is 0 CFU/cm^2.

And the “M. luteus, detected CFU/cm^2 after 48 h” value ([3]; Mixed nitrocellulose/cellulose acetate esters (GSWP 0.22 μm))?
Its value is 3 ± 1 CFU/cm^2.

And the “M. luteus, detected CFU/cm^2 after 48 h” value ([3]; Mixed nitrocellulose/cellulose acetate esters (HAWP, 0.45 μm))?
Its value is 4 ± 1 CFU/cm^2.

What about the “M. luteus, detected CFU/cm^2 after 48 h” value ([3]; Polycarbonate (PC, 0.45 um)) of the same compound?
The value was 4 ± 1 CFU/cm^2.

What about the “M. luteus, detected CFU/cm^2 after 48 h” value ([3]; Polyvinylidene difluoride (GVHP, 0.22 μm)) of the same compound?
The value was 3 ± 1 CFU/cm^2.

What about the “M. luteus, detected CFU/cm^2 after 48 h” value ([3]; Polyvinylidene difluoride (HVLP, 0.45 μm)) of the same compound?
Its value is 0 CFU/cm^2.
